Measurements reported in patent publication US9303009B2, “Migrastatins and uses thereof” (Sloan-Kettering Institute for Cancer Research, priority 2011, dated 2016).

Test system: AC3-TGL cells
Assay: human primary SCLC xenograft model, Example 15
Assay type: in vivo
Description: This Example studied whether the ME analog affects tumor metastasis in a human small cell lung cancer (SCLC) primary xenograft model. These cells in primary and subsequent in vivo passages in NOD-SCID mice formed liver metastases. The tumor cells were stably transduced with a triple-fusion protein reporter construct (AC3-TGL), and were transplanted by subcutaneous injection with matrigel into NOD/SCID IL2R gamma null (NSG) mice. Started 1 day prior the inoculation of tumor cells, ME treatment was initiated by intraperitoneal injection at 40 mg/kg (ME40) or 200 mg/kg (ME200) three times a week in groups of 5 mice. Control mice were treated with DMSO vehicle. Tumor burden and metastatic spread were monitored every 5 days by serial non-invasive bioluminescent imaging. […] At the endpoint, the potential metastatic sites (liver, lung, spleen, heart and kidney, gastrointestinal tract) were surgically resected and the luciferase activity quantified by ex-vivo bioluminescence imaging (FIG. 5b).
For the results depicted in FIGS. 5a-c, AC3-TGL cells were transplanted by subcutaneous ventral injection into NSG mice. Xenografted mice were treated with indicated dosages of ME every 3 days started from day −1 after tumor inoculation: 40 mg/kg (ME40, n=5), 200 mg/kg (ME200, n=5)) and DMSO vehicle (Control, n=5). At day 45, the mice were sacrificed. Three mice in the ME200 group died before the end of treatment, at day 23, 30 and 34. (A) Tumor growth. Every 5 days, the tumor burden was monitored by in vivo Bioluminescence Imaging (BI) and data is expressed as photon flux (flux in photon/sec)+/−SEM in log scale. (B, C) Tumor metastasis at endpoint. At day 45, mice were analyzed for metastasis by ex vivo BI quantifying luciferase activity in the excised lungs (Lu), liver (Li), heart (H), kidneys (K) and the spleen (S). Measurements for each mouse are presented on the panel B (circles), with the average per group (short line) and expressed as photon flux (flux in photon/sec) in log scale. P-values were obtained using two-tailed Mann-Whitney U-test. Pictures of bioluminescence signal measured on the organs from 1 mouse of each group are presented on the panel C. Each picture is presented with the same settings (4 min exposure; photon signal; color scale from 5.E6 (min) to 1.E8 (max)).
Xenograft Model for Example 15: A human primary SCLC xenograft model was developed in 10-14 weeks old male non-obese diabetic severe combined immunodeficient (NOD/SCID) Interleukin-2 gamma Chain Receptor Null Mice (NSG). Primary tumor samples were obtained after patient informed consent. AC3-TGL primary cells growing as clumps were processed into a single-cell suspension by Trypsin/Collagenase IV (Invitrogen) sequential treatment and filtrated as described above. Xenografts were performed by subcutaneous ventral injection of 10^3 AC3-TGL cells in serum-free medium mixed with Matrigel (Becton Dickinson). One day prior to the tumor cell injection, mice were pretreated with Migrastatin Ether (ME) compounds at a dose of either 40 mg/kg or 200 mg/kg per mouse or with DMSO vehicle control (n≧5 mice per group). […] During this time, the tumor burden and metastatic spread were monitored by bioluminescence imaging (BLI) every 5 days. At day 45 (endpoint), the mice were killed and the metastatic spread of tumor cells to the lungs, liver, heart, kidneys, spleen and GI tract was assessed by ex-vivo BLI on the removed organs.

With `CO[C@H]1/C=C/CCCCCOC/C(C)=C\[C@@H](C)[C@@H]1O` [ME, migrastatin ether] the “decrease of overall metastasis” value (40 mg/kg i.p. every 3 days, day 45, vs control) was 93%, the “mice died before the endpoint” value (200 mg/kg group of 5) was 3 mice and the metastasis inhibition (200 mg/kg i.p. every 3 days, day 45, 2 surviving mice) was 99%. For the same molecule, the “side effects in surviving mice” value (200 mg/kg, 2 surviving mice, after 45 days of treatment) was “no body-weight loss, lethargy or other obvious side effects” and the “tumor growth kinetics at the primary site of injection” value (40 or 200 mg/kg i.p.) was “did not significantly interfere”.
